From paper PMC2924751 (Chemical research in toxicology, 2010)

Assays:
P450 3A5 = P450 3A5 (Homo sapiens, UniProt P20815); test: in vitro
P450 3A4 = P450 3A4 (Homo sapiens, UniProt P08684); test: in vitro
Sequence of P450 3A4 (P08684 2-503): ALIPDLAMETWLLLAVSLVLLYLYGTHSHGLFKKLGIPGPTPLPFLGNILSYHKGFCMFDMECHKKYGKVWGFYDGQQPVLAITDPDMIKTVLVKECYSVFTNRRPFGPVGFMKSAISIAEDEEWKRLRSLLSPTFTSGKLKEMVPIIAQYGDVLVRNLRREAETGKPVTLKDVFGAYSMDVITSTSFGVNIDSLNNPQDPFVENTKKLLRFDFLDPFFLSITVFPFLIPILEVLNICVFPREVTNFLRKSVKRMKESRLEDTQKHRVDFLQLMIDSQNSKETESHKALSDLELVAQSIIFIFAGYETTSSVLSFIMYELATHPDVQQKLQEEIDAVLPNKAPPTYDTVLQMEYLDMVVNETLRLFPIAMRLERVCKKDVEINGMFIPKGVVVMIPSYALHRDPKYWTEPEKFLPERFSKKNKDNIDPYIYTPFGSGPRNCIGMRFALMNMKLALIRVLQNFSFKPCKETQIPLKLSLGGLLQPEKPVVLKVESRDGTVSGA
Sequence of P450 3A4 (P16435 2-677 partner): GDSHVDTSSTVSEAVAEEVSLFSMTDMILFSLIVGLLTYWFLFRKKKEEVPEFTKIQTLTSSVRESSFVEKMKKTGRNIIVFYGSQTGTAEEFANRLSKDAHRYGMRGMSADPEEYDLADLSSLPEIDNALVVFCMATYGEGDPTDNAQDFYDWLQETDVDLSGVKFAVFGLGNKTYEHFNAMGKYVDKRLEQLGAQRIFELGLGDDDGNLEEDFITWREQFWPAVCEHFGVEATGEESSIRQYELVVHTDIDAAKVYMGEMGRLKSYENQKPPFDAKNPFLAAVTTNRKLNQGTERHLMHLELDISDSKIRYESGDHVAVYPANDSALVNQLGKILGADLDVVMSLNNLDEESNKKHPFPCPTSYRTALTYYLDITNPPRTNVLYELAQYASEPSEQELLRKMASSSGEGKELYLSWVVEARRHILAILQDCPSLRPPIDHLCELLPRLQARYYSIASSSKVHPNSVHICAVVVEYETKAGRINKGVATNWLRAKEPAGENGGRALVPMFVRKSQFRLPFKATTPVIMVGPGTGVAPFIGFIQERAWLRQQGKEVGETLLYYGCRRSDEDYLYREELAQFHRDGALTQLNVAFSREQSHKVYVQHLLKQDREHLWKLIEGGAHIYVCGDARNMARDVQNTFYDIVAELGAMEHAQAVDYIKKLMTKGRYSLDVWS
Sequence of P450 3A4 (P00167 2-134 partner): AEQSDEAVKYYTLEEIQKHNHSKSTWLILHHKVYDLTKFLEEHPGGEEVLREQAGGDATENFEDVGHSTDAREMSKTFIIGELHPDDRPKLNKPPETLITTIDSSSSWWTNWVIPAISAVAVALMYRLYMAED

Sequence of P450 3A5 (P20815 whole entry): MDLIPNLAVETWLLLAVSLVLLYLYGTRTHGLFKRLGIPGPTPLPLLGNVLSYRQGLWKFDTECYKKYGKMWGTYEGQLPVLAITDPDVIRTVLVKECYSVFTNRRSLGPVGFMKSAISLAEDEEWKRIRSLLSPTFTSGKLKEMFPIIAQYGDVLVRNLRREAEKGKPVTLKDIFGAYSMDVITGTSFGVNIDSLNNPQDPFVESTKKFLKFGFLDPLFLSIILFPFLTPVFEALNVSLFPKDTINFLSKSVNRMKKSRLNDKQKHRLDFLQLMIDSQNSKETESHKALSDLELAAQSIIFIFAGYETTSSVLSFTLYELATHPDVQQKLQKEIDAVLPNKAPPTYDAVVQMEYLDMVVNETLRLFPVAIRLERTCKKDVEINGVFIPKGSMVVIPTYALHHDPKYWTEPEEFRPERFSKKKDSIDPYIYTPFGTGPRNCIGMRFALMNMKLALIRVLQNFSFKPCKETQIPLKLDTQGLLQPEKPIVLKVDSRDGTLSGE
Sequence of P450 3A5 (P16435 2-677 partner): as the sequence (P16435 2-677 partner) above
Sequence of P450 3A5 (P00167 2-134 partner): as the sequence (P00167 2-134 partner) above

KI (inactivation) (P450 3A5): 16 µM | KI (inactivation) (P450 3A4): 3.5 µM
SMILES: CCC(=O)O[C@]1(C(=O)SCF)[C@H](C)C[C@H]2[C@@H]3C[C@H](F)C4=CC(=O)C=C[C@]4(C)[C@@]3(F)[C@@H](O)C[C@@]21C [FLT, fluticasone propionate]
